According to patent US11098055B2, “Ester ACC inhibitors and uses thereof” (Gilead Apollo, LLC, priority 2015, dated 2021):
≈ marks a conversion by molar mass, not a printed value. Where two headings read alike, the source gives them in different places.

Columns and labels:
Septoria tritici (St) = assay: Growth inhibition assay of fungal pathogens; type: cell-based; conditions: Zymoseptoria tritici, 48 h, read-out: Concentration at 90% Inhibition St
Summary of the method: (§1)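 Spores, or mycelial plugs for Rhizoctonia, in 17% V8 medium (¼ PDB for plugs) were exposed to compound at final 50, 10 and 2 ppm or 2, 0.4 and 0.08 ppm, with 2% DMSO. Growth was read by OD600 with blank subtraction plus visual rating; percent inhibition at 48 h is relative to 2% DMSO control.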

[1] = system: Fusarium virguliforme (Fv); assay: Growth inhibition assay of fungal pathogens; type: cell-based; conditions: 48 h, read-out: Concentration at 90% Inhibition Fv
Summary of the method: as §1

[2] = system: Phytophthora capsici (Pc); assay: Growth inhibition assay of fungal pathogens; type: cell-based; conditions: 48 h, read-out: Concentration at 90% Inhibition Pc
Summary of the method: as §1

[3] = system: Collectotrichum graminicola (Cg); assay: Growth inhibition assay of fungal pathogens; type: cell-based; conditions: 48 h, read-out: Concentration at 90% Inhibition Cg
Summary of the method: as §1

[4] = system: Fusarium moniliforme (Fm); assay: Growth inhibition assay of fungal pathogens; type: cell-based; conditions: Fusarium verticillioides, 48 h, read-out: Concentration at 90% Inhibition Fm
Summary of the method: as §1

Diplodia maydis (Dm) = assay: Growth inhibition assay of fungal pathogens; type: cell-based; conditions: Stenocarpella maydis, 48 h, read-out: Concentration at 90% Inhibition Dm
Summary of the method: as §1

Rhizoctonia solani (Rs) = assay: Growth inhibition assay of fungal pathogens; type: cell-based; conditions: 48 h, read-out: Concentration at 90% Inhibition Rs
Summary of the method: as §1

hACC2 = hACC2 (Homo sapiens, UniProt O00763); assay: In vitro ACC2 inhibition assay (ADP-Glo), human ACC2; type: biochemical
Summary of the method: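 ADP-Glo luminescent ADP detection with 5 nM ACC2, 20 μM ATP, 20 μM acetyl-CoA, 12 mM NaHCO3, 2 mM DTT, 5% DMSO; compound (30 μM-0.00051 μM, 11 points) preincubated 15 min, reaction 60 min at room temperature. Percent inhibition against DMSO and positive controls; IC50 by four-parameter nonlinear fit.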

hACC2, sequence (O00763 whole entry): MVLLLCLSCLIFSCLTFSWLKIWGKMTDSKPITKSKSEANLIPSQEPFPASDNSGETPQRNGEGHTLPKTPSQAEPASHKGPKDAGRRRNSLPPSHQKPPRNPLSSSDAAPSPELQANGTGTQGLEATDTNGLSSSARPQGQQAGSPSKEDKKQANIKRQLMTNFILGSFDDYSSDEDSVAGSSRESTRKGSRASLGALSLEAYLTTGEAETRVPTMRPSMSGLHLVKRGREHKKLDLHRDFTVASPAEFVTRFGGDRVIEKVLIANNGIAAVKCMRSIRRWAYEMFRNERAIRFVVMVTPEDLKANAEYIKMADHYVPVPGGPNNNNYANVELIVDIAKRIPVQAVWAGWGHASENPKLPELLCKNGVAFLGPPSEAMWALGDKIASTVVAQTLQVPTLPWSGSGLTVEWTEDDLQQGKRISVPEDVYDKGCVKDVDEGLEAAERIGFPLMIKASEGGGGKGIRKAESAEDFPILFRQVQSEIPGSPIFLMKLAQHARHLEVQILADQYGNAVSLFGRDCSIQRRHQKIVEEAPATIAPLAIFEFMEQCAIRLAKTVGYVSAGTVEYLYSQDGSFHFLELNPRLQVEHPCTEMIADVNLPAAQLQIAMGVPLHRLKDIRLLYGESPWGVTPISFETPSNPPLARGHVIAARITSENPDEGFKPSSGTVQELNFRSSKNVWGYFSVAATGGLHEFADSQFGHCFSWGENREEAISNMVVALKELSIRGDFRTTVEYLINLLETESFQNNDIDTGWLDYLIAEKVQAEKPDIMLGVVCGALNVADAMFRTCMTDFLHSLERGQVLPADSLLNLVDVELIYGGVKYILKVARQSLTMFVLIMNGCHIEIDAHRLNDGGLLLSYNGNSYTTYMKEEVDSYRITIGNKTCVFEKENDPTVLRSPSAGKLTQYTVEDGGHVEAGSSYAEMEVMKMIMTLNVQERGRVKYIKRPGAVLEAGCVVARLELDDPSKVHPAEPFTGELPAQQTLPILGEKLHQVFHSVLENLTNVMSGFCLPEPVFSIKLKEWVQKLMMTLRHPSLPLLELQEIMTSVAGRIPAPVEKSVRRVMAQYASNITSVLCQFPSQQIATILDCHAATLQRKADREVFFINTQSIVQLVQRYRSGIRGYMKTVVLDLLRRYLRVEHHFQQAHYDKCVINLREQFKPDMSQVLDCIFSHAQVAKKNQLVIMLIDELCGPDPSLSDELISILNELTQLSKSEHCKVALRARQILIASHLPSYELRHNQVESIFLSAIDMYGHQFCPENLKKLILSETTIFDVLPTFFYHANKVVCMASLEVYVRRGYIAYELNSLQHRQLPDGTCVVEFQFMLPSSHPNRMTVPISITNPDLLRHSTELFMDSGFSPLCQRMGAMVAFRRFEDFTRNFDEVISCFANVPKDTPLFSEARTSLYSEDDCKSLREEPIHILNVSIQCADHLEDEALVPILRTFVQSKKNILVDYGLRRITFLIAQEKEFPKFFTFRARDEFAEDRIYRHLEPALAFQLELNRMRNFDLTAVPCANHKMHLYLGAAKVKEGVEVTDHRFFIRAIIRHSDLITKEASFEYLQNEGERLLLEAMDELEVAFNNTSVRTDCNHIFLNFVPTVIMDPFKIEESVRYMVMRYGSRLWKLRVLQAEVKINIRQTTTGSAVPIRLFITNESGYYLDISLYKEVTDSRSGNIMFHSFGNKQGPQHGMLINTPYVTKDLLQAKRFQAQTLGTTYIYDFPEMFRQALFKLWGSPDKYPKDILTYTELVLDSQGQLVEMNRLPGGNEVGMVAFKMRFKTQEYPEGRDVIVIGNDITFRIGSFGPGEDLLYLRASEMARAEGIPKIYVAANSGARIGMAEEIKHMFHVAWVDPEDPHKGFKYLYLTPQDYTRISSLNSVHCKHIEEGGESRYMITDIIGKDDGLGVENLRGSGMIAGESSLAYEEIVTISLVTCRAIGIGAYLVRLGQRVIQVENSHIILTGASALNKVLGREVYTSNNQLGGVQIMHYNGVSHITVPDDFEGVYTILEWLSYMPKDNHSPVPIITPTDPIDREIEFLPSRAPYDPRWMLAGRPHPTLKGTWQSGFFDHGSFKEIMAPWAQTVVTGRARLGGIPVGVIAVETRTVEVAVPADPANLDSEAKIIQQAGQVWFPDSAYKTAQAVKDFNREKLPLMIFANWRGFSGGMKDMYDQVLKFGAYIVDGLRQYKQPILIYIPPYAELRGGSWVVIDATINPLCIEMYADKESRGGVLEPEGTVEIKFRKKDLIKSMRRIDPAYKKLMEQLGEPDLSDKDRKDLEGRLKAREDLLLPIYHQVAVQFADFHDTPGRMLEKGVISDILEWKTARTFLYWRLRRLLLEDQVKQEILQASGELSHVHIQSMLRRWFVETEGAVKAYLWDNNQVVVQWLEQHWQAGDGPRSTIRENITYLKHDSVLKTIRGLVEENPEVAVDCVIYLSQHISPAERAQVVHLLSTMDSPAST

Compound: CCNC(=O)C(C)(C)n1c(=O)c2c(C)c(C(=O)OCC)sc2n(C[C@H](OCCC#N)c2ccccc2OC)c1=O [Compound I-32, ethyl (R)-1-(2-(2-cyanoethoxy)-2-(2-methoxyphenyl)ethyl)-3-(1-(ethylamino)-2-methyl-1-oxopropan-2-yl)-5-methyl-2,4-dioxo-1,2,3,4-tetrahydrothieno[2,3-d]pyrimidine-6-carboxylate]
- IC90 (Septoria tritici (St); Table 4b): 10 mg/L (≈ 17.5 µM)
- IC90 ([1]; Table 4b): 2 mg/L (≈ 3.5 µM)
- IC90 ([2]; Table 4b): ≥ 50 mg/L
- IC90 ([3]; Table 4b): 2 mg/L (≈ 3.5 µM)
- IC90 ([4]; Table 4b): 0.08 mg/L (≈ 0.14 µM)
- IC90 (Diplodia maydis (Dm); Table 4b): 2 mg/L (≈ 3.5 µM)
- IC90 (Rhizoctonia solani (Rs); Table 4b): 2 mg/L (≈ 3.5 µM)
- IC50 (hACC2; Table 2b (additional results)): 0.003 to 0.01 µM

Compound: CCOC(=O)c1sc2c(c1C)c(=O)n(C(C)(C)C(N)=O)c(=O)n2C[C@H](OCCOC)c1cc(F)ccc1OC [Compound I-10, (R)-ethyl 3-(1-amino-2-methyl-1-oxopropan-2-yl)-1-(2-(5-fluoro-2-methoxyphenyl)-2-(2-methoxyethoxy)ethyl)-5-methyl-2,4-dioxo-1,2,3,4-tetrahydrothieno[2,3-d]pyrimidine-6-carboxylate]
- IC90 (Septoria tritici (St); Table 4a): ≥ 50 mg/L
- IC90 (Septoria tritici (St); Table 4b): ≥ 50 mg/L
- IC90 ([1]; Table 4a): ≥ 50 mg/L
- IC90 ([1]; Table 4b): ≥ 50 mg/L
- IC90 ([2]; Table 4a): ≥ 50 mg/L
- IC90 ([2]; Table 4b): ≥ 50 mg/L
- IC90 ([3]; Table 4a): ≥ 50 mg/L
- IC90 ([3]; Table 4b): ≥ 50 mg/L
- IC90 ([4]; Table 4a): ≥ 50 mg/L
- IC90 ([4]; Table 4b): 10 mg/L (≈ 17.7 µM)
- IC90 (Diplodia maydis (Dm); Table 4a): ≥ 50 mg/L
- IC90 (Diplodia maydis (Dm); Table 4b): ≥ 50 mg/L
- IC90 (Rhizoctonia solani (Rs); Table 4a): ≥ 50 mg/L
- IC90 (Rhizoctonia solani (Rs); Table 4b): ≥ 50 mg/L
- IC50 (hACC2; Table 2a): ≥ 0.04 µM
- IC50 (hACC2; Table 2b (additional results)): ≥ 0.04 µM

Compound: CCOC(=O)c1sc2c(c1C)c(=O)n(C(C)(C)C(=O)NC(C)C)c(=O)n2CCc1cc(F)ccc1OC [Compound I-40, ethyl 1-(5-fluoro-2-methoxyphenethyl)-3-(1-(isopropylamino)-2-methyl-1-oxopropan-2-yl)-5-methyl-2,4-dioxo-1,2,3,4-tetrahydrothieno[2,3-d]pyrimidine-6-carboxylate]
- IC90 (Septoria tritici (St); Table 4b): ≥ 50 mg/L
- IC90 ([1]; Table 4b): 2 mg/L (≈ 3.75 µM)
- IC90 ([2]; Table 4b): ≥ 50 mg/L
- IC90 ([3]; Table 4b): 10 mg/L (≈ 18.7 µM)
- IC90 ([4]; Table 4b): 2 mg/L (≈ 3.75 µM)
- IC90 (Diplodia maydis (Dm); Table 4b): 10 mg/L (≈ 18.7 µM)
- IC90 (Rhizoctonia solani (Rs); Table 4b): ≥ 50 mg/L
- IC50 (hACC2; Table 2b (additional results)): 0.01 to 0.04 µM

Compound: CCOC(=O)c1sc2c(c1C)c(=O)n([C@H](C)C(N)=O)c(=O)n2C[C@H](OCCC#N)c1cc(F)ccc1OC [Compound I-26, ethyl 3-((R)-1-amino-1-oxopropan-2-yl)-1-((R)-2-(2-cyanoethoxy)-2-(5-fluoro-2-methoxyphenyl)ethyl)-5-methyl-2,4-dioxo-1,2,3,4-tetrahydrothieno[2,3-d]pyrimidine-6-carboxylate]
- IC90 (Septoria tritici (St); Table 4b): ≥ 50 mg/L
- IC90 ([1]; Table 4b): ≥ 50 mg/L
- IC90 ([2]; Table 4b): ≥ 50 mg/L
- IC90 ([3]; Table 4b): ≥ 50 mg/L
- IC90 ([4]; Table 4b): 10 mg/L (≈ 18.3 µM)
- IC90 (Diplodia maydis (Dm); Table 4b): ≥ 50 mg/L
- IC90 (Rhizoctonia solani (Rs); Table 4b): 2 mg/L (≈ 3.66 µM)
- IC50 (hACC2; Table 2b (additional results)): 0.003 to 0.01 µM

Compound: CCOC(=O)c1sc2c(c1C)c(=O)n(C(C)(C)C(=O)N1CCCC1)c(=O)n2C[C@H](O)c1cc(F)ccc1OC [Compound I-22, (R)-ethyl 1-(2-(5-fluoro-2-methoxyphenyl)-2-hydroxyethyl)-5-methyl-3-(2-methyl-1-oxo-1-(pyrrolidin-1-yl)propan-2-yl)-2,4-dioxo-1,2,3,4-tetrahydrothieno[2,3-d]pyrimidine-6-carboxylate]
- IC90 (Septoria tritici (St); Table 4b): ≥ 50 mg/L
- IC90 ([1]; Table 4b): 2 mg/L (≈ 3.56 µM)
- IC90 ([2]; Table 4b): ≥ 50 mg/L
- IC90 ([3]; Table 4b): 10 mg/L (≈ 17.8 µM)
- IC90 ([4]; Table 4b): 2 mg/L (≈ 3.56 µM)
- IC90 (Diplodia maydis (Dm); Table 4b): ≥ 50 mg/L
- IC90 (Rhizoctonia solani (Rs); Table 4b): 0.08 mg/L (≈ 0.142 µM)
- IC50 (hACC2; Table 2b (additional results)): 0.01 to 0.04 µM

Compound: CCNC(=O)[C@H](C)n1c(=O)c2c(C)c(C(=O)OCC)sc2n(C[C@H](OCCC#N)c2cc(F)ccc2OC)c1=O [Compound I-42, ethyl 1-((R)-2-(2-cyanoethoxy)-2-(5-fluoro-2-methoxyphenyl)ethyl)-3-((S)-1-(ethylamino)-1-oxopropan-2-yl)-5-methyl-2,4-dioxo-1,2,3,4-tetrahydrothieno[2,3-d]pyrimidine-6-carboxylate]
- IC90 (Septoria tritici (St); Table 4b): ≥ 50 mg/L
- IC90 ([1]; Table 4b): 0.4 mg/L (≈ 0.696 µM)
- IC90 ([2]; Table 4b): ≥ 50 mg/L
- IC90 ([3]; Table 4b): 2 mg/L (≈ 3.48 µM)
- IC90 ([4]; Table 4b): 0.08 mg/L (≈ 0.139 µM)
- IC90 (Diplodia maydis (Dm); Table 4b): 2 mg/L (≈ 3.48 µM)
- IC90 (Rhizoctonia solani (Rs); Table 4b): 2 mg/L (≈ 3.48 µM)
- IC50 (hACC2; Table 2b (additional results)): 0.003 to 0.01 µM

Compound: CCOC(=O)c1sc2c(c1C)c(=O)n(C(C)(C)C(=O)NC(C)C)c(=O)n2C[C@H](OC[C@H](C)C#N)c1cc(F)ccc1OC [Compound I-34, ethyl 1-((R)-2-((R)-2-cyanopropoxy)-2-(5-fluoro-2-methoxyphenyl)ethyl)-3-(1-(isopropylamino)-2-methyl-1-oxopropan-2-yl)-5-methyl-2,4-dioxo-1,2,3,4-tetrahydrothieno[2,3-d]pyrimidine-6-carboxylate]
- IC90 (Septoria tritici (St); Table 4b): 2 mg/L (≈ 3.24 µM)
- IC90 ([1]; Table 4b): 0.4 mg/L (≈ 0.649 µM)
- IC90 ([2]; Table 4b): 10 mg/L (≈ 16.2 µM)
- IC90 ([3]; Table 4b): 0.08 mg/L (≈ 0.13 µM)
- IC90 ([4]; Table 4b): 0.08 mg/L (≈ 0.13 µM)
- IC90 (Diplodia maydis (Dm); Table 4b): 0.4 mg/L (≈ 0.649 µM)
- IC90 (Rhizoctonia solani (Rs); Table 4b): 0.08 mg/L (≈ 0.13 µM)
- IC50 (hACC2; Table 2b (additional results)): 0.01 to 0.04 µM

Compound: CCOC(=O)c1sc2c(c1C)c(=O)n([C@@H](C)C(=O)NC(C)C)c(=O)n2C[C@H](OCCC#N)c1cc(F)ccc1OC [Compound I-20, ethyl 1-((R)-2-(2-cyanoethoxy)-2-(5-fluoro-2-methoxy-phenyl)ethyl)-3-((S)-1-(isopropylamino)-1-oxopropan-2-yl)-5-methyl-2,4-dioxo-1,2,3,4-tetrahydrothieno[2,3-d]pyrimidine-6-carboxylate]
- IC90 (Septoria tritici (St); Table 4b): ≥ 50 mg/L
- IC90 ([1]; Table 4b): 10 mg/L (≈ 17 µM)
- IC90 ([2]; Table 4b): ≥ 50 mg/L
- IC90 ([3]; Table 4b): 10 mg/L (≈ 17 µM)
- IC90 ([4]; Table 4b): 0.4 mg/L (≈ 0.68 µM)
- IC90 (Diplodia maydis (Dm); Table 4b): 10 mg/L (≈ 17 µM)
- IC90 (Rhizoctonia solani (Rs); Table 4b): ≥ 50 mg/L
- IC50 (hACC2; Table 2b (additional results)): 0.003 to 0.01 µM

Compound: CCNC(=O)C(C)(C)n1c(=O)c2c(C)c(C(=O)OCC)sc2n(C[C@H](O)c2cc(F)ccc2OC)c1=O [Compound I-39, ethyl (R)-3-(1-(ethylamino)-2-methyl-1-oxopropan-2-yl)-1-(2-(5-fluoro-2-methoxyphenyl)-2-hydroxyethyl)-5-methyl-2,4-dioxo-1,2,3,4-tetrahydrothieno[2,3-d]pyrimidine-6-carboxylate]
- IC90 (Septoria tritici (St); Table 4b): ≥ 50 mg/L
- IC90 ([1]; Table 4b): 2 mg/L (≈ 3.73 µM)
- IC90 ([2]; Table 4b): ≥ 50 mg/L
- IC90 ([3]; Table 4b): ≥ 50 mg/L
- IC90 ([4]; Table 4b): 2 mg/L (≈ 3.73 µM)
- IC90 (Diplodia maydis (Dm); Table 4b): ≥ 50 mg/L
- IC90 (Rhizoctonia solani (Rs); Table 4b): 0.08 mg/L (≈ 0.149 µM)
- IC50 (hACC2; Table 2b (additional results)): 0.01 to 0.04 µM

Compound: CCOC(=O)c1sc2c(c1C)c(=O)n([C@@H](C)C(N)=O)c(=O)n2C[C@H](OCCC#N)c1cc(F)ccc1OC [Compound I-25, ethyl 3-((S)-1-amino-1-oxopropan-2-yl)-1-((R)-2-(2-cyanoethoxy)-2-(5-fluoro-2-methoxyphenyl)ethyl)-5-methyl-2,4-dioxo-1,2,3,4-tetrahydrothieno[2,3-d]pyrimidine-6-carboxylate]
- IC90 (Septoria tritici (St); Table 4b): ≥ 50 mg/L
- IC90 ([1]; Table 4b): ≥ 50 mg/L
- IC90 ([2]; Table 4b): ≥ 50 mg/L
- IC90 ([3]; Table 4b): ≥ 50 mg/L
- IC90 ([4]; Table 4b): 10 mg/L (≈ 18.3 µM)
- IC90 (Diplodia maydis (Dm); Table 4b): ≥ 50 mg/L
- IC90 (Rhizoctonia solani (Rs); Table 4b): 0.4 mg/L (≈ 0.732 µM)
- IC50 (hACC2; Table 2b (additional results)): 0.003 to 0.01 µM

Compound: CCNC(=O)C(C)(C)n1c(=O)c2c(C)c(C(=O)OCC)sc2n(C[C@H](OC(C)C)c2ccccc2OC)c1=O [Compound I-4, (R)-ethyl 3-(1-(ethylamino)-2-methyl-1-oxopropan-2-yl)-1-(2-isopropoxy-2-(2-methoxyphenyl)ethyl)-5-methyl-2,4-dioxo-1,2,3,4-tetrahydrothieno[2,3-d]pyrimidine-6-carboxylate]
- IC90 (Septoria tritici (St); Table 4a): ≥ 50 mg/L
- IC90 (Septoria tritici (St); Table 4b): ≥ 50 mg/L
- IC90 ([1]; Table 4a): 2 mg/L (≈ 3.57 µM)
- IC90 ([1]; Table 4b): 2 mg/L (≈ 3.57 µM)
- IC90 ([2]; Table 4a): ≥ 50 mg/L
- IC90 ([2]; Table 4b): ≥ 50 mg/L
- IC90 ([3]; Table 4a): ≥ 50 mg/L
- IC90 ([3]; Table 4b): 10 mg/L (≈ 17.9 µM)
- IC90 ([4]; Table 4a): 0.4 mg/L (≈ 0.715 µM)
- IC90 ([4]; Table 4b): 0.4 mg/L (≈ 0.715 µM)
- IC90 (Diplodia maydis (Dm); Table 4a): ≥ 50 mg/L
- IC90 (Diplodia maydis (Dm); Table 4b): 10 mg/L (≈ 17.9 µM)
- IC90 (Rhizoctonia solani (Rs); Table 4a): ≥ 50 mg/L
- IC90 (Rhizoctonia solani (Rs); Table 4b): ≥ 50 mg/L
- IC50 (hACC2; Table 2a): 0.01 to 0.04 µM
- IC50 (hACC2; Table 2b (additional results)): 0.01 to 0.04 µM
